Measurements published in patent US20070191495A1, “Lipase inhibitor” (FUJI OIL COMPANY, LIMITED, priority 2004, published 2007).

Assays:
pig pancreatic lipase = target: T1, pig pancreatic lipase (Sus scrofa, UniProt P00591); assay: lipase activity measurement (free fatty acid released from emulsified fat, OD480); assay type: biochemical; conditions: for Relative activity of test fat to soybean oil: 37° C., 1 hour
T1 construct: purchased Sigma
T1 sequence (P00591 1-450): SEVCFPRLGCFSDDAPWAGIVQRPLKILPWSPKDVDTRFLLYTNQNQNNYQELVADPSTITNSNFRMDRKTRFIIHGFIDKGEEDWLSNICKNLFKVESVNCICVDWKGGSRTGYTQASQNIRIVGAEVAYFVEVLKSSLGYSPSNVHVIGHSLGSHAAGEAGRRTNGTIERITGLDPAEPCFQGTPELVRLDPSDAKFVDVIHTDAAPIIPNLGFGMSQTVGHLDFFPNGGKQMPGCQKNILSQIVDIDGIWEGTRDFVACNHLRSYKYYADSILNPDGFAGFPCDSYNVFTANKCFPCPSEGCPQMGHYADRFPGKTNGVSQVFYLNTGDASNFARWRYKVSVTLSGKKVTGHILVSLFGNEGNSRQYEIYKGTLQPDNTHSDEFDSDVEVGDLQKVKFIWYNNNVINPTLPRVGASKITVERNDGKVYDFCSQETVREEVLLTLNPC
Description: (§1) Soybean oils of which 1 part (2O2 purity: about 0.8%), 5 parts (2O2 purity: about 4.2%), 10 parts (2O2 purity: about 8.3%) and 50 parts (2O2 purity about: 41.5%) were replaced with the 2O2 fraction obtained as described above, and the 2O2 fraction itself (2O2 purity: 83%) were used for the following lipase activity measurement. To 80 mg of each oil, 80 mg of phosphatidylcholine (Sigma), 5 mg of sodium taurocholate (Wako Pure Chemical Industries, Ltd.), and 9 ml of a 0.1 M TES buffer (PH 7) containing 0.1 M NaCl were added and the mixture was emulsified with an ultrasound oscillator for 1 minute to obtain a substrate. To 300 μl of the substrate, 5 μl (5U) of a pig pancreatic lipase (Sigma) was added and then reacted at 37° C. for 1 hour. To the reaction mixture was then added 3 ml of an extraction solvent (a mixture of chloroform/heptane/methanol=49 parts/49 parts/2 parts). The mixture was stirred vigorously and then centrifuged at 2500 rpm for 5 minutes. The upper layer was removed. To the lower layer was added 1 ml of a copper regent (prepared by dissolving 2.98 g of triethanolamine, 2.42 g of copper nitrate and 0.48 g of NaOH in 200 ml of water and then adding 66 g of NaCl). The mixture was stirred for 10 minutes and then centrifuged at 2500 rpm for 10 minutes to take 1.5 ml of the upper layer as a sample. To the sample was added 1.5 ml of a color-producing reagent (prepared by 0.2 g of bathocuproin and 0.1 g of butylhydroxyanisole in 200 ml of chloroform) and an absorbance at OD480 was measured as the quantity of free fatty acid.
as §1, with “(LUU/UUL” for “(2O2”, “0.7%),” for “0.8%),”, “3.5%) and” for “4.2%),”, “7.0%)” for “8.3%) and 50 parts (2O2 purity about: 41.5%)”, “LUU/UUL” for “2O2”, “70%)” for “83%)”
Soybean oils of which 1 part, 5 parts and 10 parts were replaced with the glyceryl ether lipid fraction obtained as described above, and the glyceryl ether lipid fraction itself were used for the following lipase activity measurement. To 80 mg of each oil, 80 mg of phosphatidylcholine (Sigma), 5 mg of sodium taurocholate (Wako Pure Chemical Industries, Ltd.), and 9 ml of a 0.1 M TES buffer (PH 7) containing 0.1 M NaCl were added and the mixture was emulsified with an ultrasound oscillator for 1 minute to obtain a substrate. To 300 μl of the substrate, 5 μl (5U) of a pig pancreatic lipase (Sigma) was added and then reacted at 37° C. for 1 hour. To the reaction mixture was then added 3 ml of an extraction solvent (a mixture of chloroform/heptane/methanol =49 parts/49 parts/2 parts). The mixture was stirred vigorously and then centrifuged at 2500 rpm for 5 minutes. […]

[1] = Digestion and absorption test in mouse; assay type: in vivo, C57BL/6J mice; conditions: for Body fat percentage: PIXImus2; for Body weight: in g (unit assumed)
Description: Using the 2O2 fraction obtained in Preparation Example 1 and mice, a digestion and absorption test was performed for about 2 months. Seven-week-old C57BL/6J mice were pre-reared for 1 week and used for the test. The compounded feed shown in Table 2, which is prepared by partially modifying AIN-93G composition, or soybean oil as a control was fed to the mice for about 2 months. Each group consisted of 6 mice. After reared for about 2 months, a change in the body weight, feed efficiency and body fat percentage were measured. For measuring body fat percentage, an X-ray bone density measuring apparatus for exclusive use in experimental mice, PIXImus2 (GE Medical Systems) was used. As a result of a digestion and adsorption test on mice for 56 days, in a group using the 2O2 fraction, the body weight was reduced by about 10%, the feed efficiency was reduced by 17%, and the body fat percentage was reduced by about 14%.
Using the LUU/UUL fraction obtained in Preparation Example 3 and mice, a digestion and absorption test was performed for about 2 months. Seven-week-old C57BL/6J mice were pre-reared for 1 week and used for the test. The compounded feed shown in Table 5, which is prepared by partially modifying AIN-93G composition, or soybean oil as a control was fed to the mice for about 2 months. Each group consisted of 6 mice. After reared for about 2 months, a change in the body weight, feed efficiency and body fat percentage were measured. For measuring body fat percentage, an X-ray bone density measuring apparatus for exclusive use in experimental mice, PIXImus2 (GE Medical Systems) was used. As a result of a digestion and adsorption test on mice for 56 days, in a group using the […] fraction, the body weight was reduced by about 9%, the feed efficiency was reduced by 12%, and the body fat percentage was reduced by about 13%.
Using the glyceryl ether lipid fraction obtained in Preparation Example 4 and mice, a digestion and absorption test was performed for about 2 months. Seven-week-old C57BL/6J mice were pre-reared for 1 week and used for the test. The compounded feed shown in Table 8, which is prepared by partially modifying AIN-93G composition, or soybean oil as a control was fed to the mice for about 2 months. Each group consisted of 6 mice. After reared for about 2 months, a change in the body weight, feed efficiency and body fat percentage were measured. For measuring body fat percentage, an X-ray bone density measuring apparatus for exclusive use in experimental mice, PIXImus2 (GE Medical Systems) was used. As a result of a digestion and adsorption test on mice for 56 days, in a group using soybean oil/the glyceryl ether lipid fraction, the body weight and the feed efficiency were reduced by bout 10%, and the body fat percentage was reduced by about 12%.

[2] = fat composition soybean oil/test fat 0/100 (part), the fraction itself
[3] = fat composition soybean oil/test fat 50/50 (part)
[4] = fat composition soybean oil/test fat 90/10 (part)
[5] = fat composition soybean oil/test fat 95/5 (part)
[6] = fat composition soybean oil/test fat 99/1 (part)
[7] = soybean oil of which 1 part was replaced with the test fat
[8] = 56 days, versus soybean oil group
[9] = after rearing for 56 days, feed with 10.0 wt % soybean oil + 0.5 wt % test fraction
[10] = before initiation of rearing, feed with 10.0 wt % soybean oil + 0.5 wt % test fraction

| Relative activity of test fat to soybean oil (pig pancreatic lipase; [2]) | Relative activity of test fat to soybean oil (pig pancreatic lipase; [3]) | Relative activity of test fat to soybean oil (pig pancreatic lipase; [4]) | Relative activity of test fat to soybean oil (pig pancreatic lipase; [5]) | Relative activity of test fat to soybean oil (pig pancreatic lipase; [6]) | activity inhibited by (pig pancreatic lipase; [7]) | activity inhibited by (pig pancreatic lipase; soybean oil of which 10 parts was replaced with the test fat) | activity inhibited by (pig pancreatic lipase; soybean oil of which 5 parts were replaced with the test fat) | Compound | body fat percentage reduced by [1, 8] | body weight reduced by [1, 8] | feed efficiency reduced by [1, 8] | Body fat percentage [1, 9] | Feed efficiency [1, 9] | Body weight [1, 9] | Body fat percentage [1, 10] | Body weight [1, 10] |
| --- | --- | --- | --- | --- | --- | --- | --- | --- | --- | --- | --- | --- | --- | --- | --- | --- |
| 30% | 68% | 74% | 91% | 86% | about 15% | about 25% |  | CCCCCCCC/C=C\CCCCCCCC(=O)OC(COC(=O)CCCCC)COC(=O)CCCCC [6O6] |  |  |  |  |  |  |  |  |
| 11% | 48% | 67% | 66% | 78% | about 20% |  | about 35% | CCCCCCCC/C=C\CCCCCCCC(=O)OC(COC(C)=O)COC(C)=O [2O2] | about 14% | about 10% | 17% | 34.8 ± 2.5 | 0.061 ± 0.002 | 30.7 ± 1.4 | 19.1 ± 0.9 | 22.8 ± 0.3 |
